Data published in ChEMBL document CHEMBL5634176, “Expression of Syo_1.56 SARP Regulator Unveils Potent Elasnin Derivatives with Antibacterial Activity” (J Nat Prod, 2024).
Converted amounts (≈) assume the structure as drawn. The source made the active and inactive calls. The rule behind the calls is not given here.

Assays:
Staphylococcus aureus [1] = assay: Antibacterial activity against Staphylococcus aureus 209 incubated for 24 hrs by absorbance based analysis; assay type: functional, organism-based; settings: Staphylococcus aureus, 209, 24 h
Escherichia coli [2] = assay: Antibacterial activity against Escherichia coli HO141 incubated for 24 hrs by absorbance based analysis; assay type: functional, organism-based; settings: HO141, 24 h
Plasmodium falciparum = assay: Antimalarial activity against Plasmodium falciparum 3D7 infected in human erythrocytes measured after 72 hrs by absorbance based analysis; assay type: functional, organism-based; settings: 3D7, 72 h
[3] = Cytotoxicity against human HeLa cells incubated for 48 hrs by WST-8 assay; assay type: toxicity, cell-based
[4] = Cytotoxicity against human HL-60 cells incubated for 48 hrs by WST-8 assay; assay type: toxicity, cell-based
Staphylococcus aureus [5] = assay: Antibacterial activity against methicillin sensitive Staphylococcus aureus FDA209P by CLSI protocol based assay; assay type: functional
Staphylococcus aureus [6] = assay: Antibacterial activity against methicillin resistant Staphylococcus aureus 92-1191 by CLSI protocol based assay; assay type: functional
Staphylococcus aureus [7] = assay: Antibacterial activity against methicillin resistant Staphylococcus aureus ATCC BAA-1717 by CLSI protocol based assay; assay type: functional
Staphylococcus aureus [8] = assay: Antibacterial activity against methicillin resistant Staphylococcus aureus ATCC BAA-1718 by CLSI protocol based assay; assay type: functional
Staphylococcus aureus [9] = assay: Antibacterial activity against methicillin resistant Staphylococcus aureus NCTC8173 by CLSI protocol based assay; assay type: functional
[10] = Inhibition of metallo-beta lactamase (unknown origin) by nitrocefin method; set-up: species or system Bacteria
Escherichia coli [11] = assay: Potentiation of meropenem induced antibacterial activity against drug-resistant Escherichia coli KB366 expressing metallo-betalactamase by agar disk diffusion method; assay type: functional, organism-based

In the case of CCCCCCc1c(O)c(CCCC)c([C@H](CCCC)C(=O)CCCCC)oc1=O, the IC50 (Staphylococcus aureus [1]) is reported as 0.8 µg/mL (≈ 1.9 µM), the IC50 (Escherichia coli [2]) is reported as over 10 µg/mL and the IC50 (Plasmodium falciparum) is reported as 8 µg/mL (≈ 19 µM). The IC50 at 48 h [3] was 7.6 µg/mL (≈ 18.1 µM), the IC50 at 48 h [4] was 8.4 µg/mL (≈ 20 µM) and the MIC (Staphylococcus aureus [5]) was 2.5 µg/mL (≈ 5.94 µM). The MIC (Staphylococcus aureus [6]) was 2.5 µg/mL (≈ 5.94 µM), the MIC (Staphylococcus aureus [7]) was 2.5 µg/mL (≈ 5.94 µM) and the MIC (Staphylococcus aureus [8]) was 2.5 µg/mL (≈ 5.94 µM). The MIC (Staphylococcus aureus [9]) was 2.5 µg/mL (≈ 5.94 µM) and the IC50 [10] was over 100 µM.
CCCCCC(=O)[C@@H](CCC(C)C)c1oc(=O)c(CCCC)c(O)c1CCCC showed an IC50 (Staphylococcus aureus [1]) of 0.5 µg/mL (≈ 1.23 µM), an IC50 (Escherichia coli [2]) of over 10 µg/mL and an IC50 (Plasmodium falciparum) of 6.9 µg/mL (≈ 17 µM). For the same compound, the IC50 at 48 h [3] was 9.7 µg/mL (≈ 23.9 µM), the IC50 at 48 h [4] was 9.7 µg/mL (≈ 23.9 µM) and the MIC (Staphylococcus aureus [5]) was 5 µg/mL (≈ 12.3 µM). For the same compound, the MIC (Staphylococcus aureus [6]) was 5 µg/mL (≈ 12.3 µM), the MIC (Staphylococcus aureus [7]) was 2.5 µg/mL (≈ 6.15 µM) and the MIC (Staphylococcus aureus [8]) was 5 µg/mL (≈ 12.3 µM). It also gave an MIC (Staphylococcus aureus [9]) of 2.5 µg/mL (≈ 6.15 µM) and an IC50 [10] of over 100 µM.
In the case of CCCCc1c([C@H](CCCC)C(=O)CCC(C)C)oc(=O)c(CCCC)c1O, the IC50 (Staphylococcus aureus [1]) is reported as 1 µg/mL (≈ 2.55 µM), the IC50 (Escherichia coli [2]) is reported as over 10 µg/mL and the IC50 (Plasmodium falciparum) is reported as 9.4 µg/mL (≈ 23.9 µM). It also gave an IC50 at 48 h [3] of over 10 µg/mL, an IC50 at 48 h [4] of over 10 µg/mL and an MIC (Staphylococcus aureus [5]) of 10 µg/mL (≈ 25.5 µM). It also gave an MIC (Staphylococcus aureus [6]) of 10 µg/mL (≈ 25.5 µM), an MIC (Staphylococcus aureus [7]) of 5 µg/mL (≈ 12.7 µM) and an MIC (Staphylococcus aureus [8]) of 5 µg/mL (≈ 12.7 µM). It also gave an MIC (Staphylococcus aureus [9]) of 5 µg/mL (≈ 12.7 µM) and an IC50 [10] of over 100 µM.
In the case of CCCCCc1oc(=O)c(CCCC)c(O)c1CCCC, the IC50 (Staphylococcus aureus [1]) is reported as 1.3 µg/mL (≈ 4.42 µM), the IC50 (Escherichia coli [2]) is reported as over 10 µg/mL and the IC50 (Plasmodium falciparum) is reported as 1.9 µg/mL (≈ 6.45 µM). It also gave an IC50 at 48 h [3] of over 10 µg/mL, an IC50 at 48 h [4] of over 10 µg/mL and an MIC (Staphylococcus aureus [5]) of 15 µg/mL (≈ 50.9 µM). It also gave an MIC (Staphylococcus aureus [6]) of 15 µg/mL (≈ 50.9 µM), an MIC (Staphylococcus aureus [7]) of 15 µg/mL (≈ 50.9 µM) and an MIC (Staphylococcus aureus [8]) of 15 µg/mL (≈ 50.9 µM). The MIC (Staphylococcus aureus [9]) was 15 µg/mL (≈ 50.9 µM) and the IC50 [10] was over 100 µM.
With CCCCCC(=O)[C@@H](CCCC)c1oc(=O)c(CCC(C)C)c(O)c1CCCC the IC50 (Staphylococcus aureus [1]) was 0.7 µg/mL (≈ 1.72 µM), the IC50 (Escherichia coli [2]) was over 10 µg/mL and the IC50 (Plasmodium falciparum) was 1.3 µg/mL (≈ 3.2 µM). It also gave an IC50 at 48 h [3] of 7.3 µg/mL (≈ 18 µM), an IC50 at 48 h [4] of 4.9 µg/mL (≈ 12.1 µM) and an MIC (Staphylococcus aureus [5]) of 6 µg/mL (≈ 14.8 µM). The MIC (Staphylococcus aureus [6]) was 6 µg/mL (≈ 14.8 µM), the MIC (Staphylococcus aureus [7]) was 6 µg/mL (≈ 14.8 µM) and the MIC (Staphylococcus aureus [8]) was 3 µg/mL (≈ 7.38 µM). For the same compound, the MIC (Staphylococcus aureus [9]) was 3 µg/mL (≈ 7.38 µM), the IC50 [10] was 10.8 µM and the Activity (Escherichia coli [11]) was “inactive”.
In the case of CCCCc1c(O)c(CCC(C)C)c([C@H](CCCC)C(=O)CCCC(C)C)oc1=O, the IC50 (Staphylococcus aureus [1]) is reported as 0.5 µg/mL (≈ 1.19 µM), the IC50 (Escherichia coli [2]) is reported as over 10 µg/mL and the IC50 (Plasmodium falciparum) is reported as 6.3 µg/mL (≈ 15 µM). It also gave an IC50 at 48 h [3] of 6.3 µg/mL (≈ 15 µM), an IC50 at 48 h [4] of 5.5 µg/mL (≈ 13.1 µM) and an MIC (Staphylococcus aureus [5]) of 2.5 µg/mL (≈ 5.94 µM). It also gave an MIC (Staphylococcus aureus [6]) of 2.5 µg/mL (≈ 5.94 µM), an MIC (Staphylococcus aureus [7]) of 2.5 µg/mL (≈ 5.94 µM) and an MIC (Staphylococcus aureus [8]) of 2.5 µg/mL (≈ 5.94 µM). It also gave an MIC (Staphylococcus aureus [9]) of 2.5 µg/mL (≈ 5.94 µM) and an IC50 [10] of over 100 µM.
Work on CCCCc1c([C@H](CCCC)C(=O)CCCC(C)C)oc(=O)c(CCC(C)C)c1O yielded an IC50 (Staphylococcus aureus [1]) of 1.1 µg/mL (≈ 2.62 µM), an IC50 (Escherichia coli [2]) of over 10 µg/mL and an IC50 (Plasmodium falciparum) of 0.1 µg/mL (≈ 0.238 µM). It also gave an IC50 at 48 h [3] of 8.4 µg/mL (≈ 20 µM), an IC50 at 48 h [4] of 8.4 µg/mL (≈ 20 µM) and an MIC (Staphylococcus aureus [5]) of 3 µg/mL (≈ 7.13 µM). For the same compound, the MIC (Staphylococcus aureus [6]) was 6 µg/mL (≈ 14.3 µM), the MIC (Staphylococcus aureus [7]) was 3 µg/mL (≈ 7.13 µM) and the MIC (Staphylococcus aureus [8]) was 3 µg/mL (≈ 7.13 µM). The MIC (Staphylococcus aureus [9]) was 3 µg/mL (≈ 7.13 µM), the IC50 [10] was 15.3 µM and the Activity (Escherichia coli [11]) was “inactive”.
With CCCCc1c(CCCC(C)C)oc(=O)c(CCCC)c1O the IC50 (Staphylococcus aureus [1]) was 1.3 µg/mL (≈ 4.21 µM), the IC50 (Escherichia coli [2]) was over 10 µg/mL and the IC50 (Plasmodium falciparum) was over 10 µg/mL. The IC50 at 48 h [3] was over 10 µg/mL, the IC50 at 48 h [4] was over 10 µg/mL and the MIC (Staphylococcus aureus [5]) was 15 µg/mL (≈ 48.6 µM). The MIC (Staphylococcus aureus [6]) was 15 µg/mL (≈ 48.6 µM), the MIC (Staphylococcus aureus [7]) was 7.7 µg/mL (≈ 25 µM) and the MIC (Staphylococcus aureus [8]) was 7.5 µg/mL (≈ 24.3 µM). For the same compound, the MIC (Staphylococcus aureus [9]) was 7.5 µg/mL (≈ 24.3 µM) and the IC50 [10] was over 100 µM.
Work on C[C@@H](O)[C@H]1C(=O)N2C(C(=O)O)=C(S[C@@H]3CN[C@H](C(=O)N(C)C)C3)[C@H](C)[C@H]12 [MEROPENEM] yielded an MIC (Staphylococcus aureus [5]) of 0.031 µg/mL (≈ 0.0808 µM), an MIC (Staphylococcus aureus [6]) of 256 µg/mL (≈ 668 µM) and an MIC (Staphylococcus aureus [7]) of 16 µg/mL (≈ 41.7 µM). The MIC (Staphylococcus aureus [8]) was 0.125 µg/mL (≈ 0.326 µM) and the MIC (Staphylococcus aureus [9]) was 0.125 µg/mL (≈ 0.326 µM).
With CCCCCCCc1oc(=O)c(CCCC)c(O)c1CCCC the IC50 (Staphylococcus aureus [1]) was 2.6 µg/mL (≈ 8.06 µM), the IC50 (Escherichia coli [2]) was over 10 µg/mL and the IC50 (Plasmodium falciparum) was 0.1 µg/mL (≈ 0.31 µM). It also gave an IC50 at 48 h [3] of over 10 µg/mL, an IC50 at 48 h [4] of over 10 µg/mL and an MIC (Staphylococcus aureus [5]) of 16 µg/mL (≈ 49.6 µM). The MIC (Staphylococcus aureus [6]) was 8.1 µg/mL (≈ 25.1 µM), the MIC (Staphylococcus aureus [7]) was 16 µg/mL (≈ 49.6 µM) and the MIC (Staphylococcus aureus [8]) was 8.1 µg/mL (≈ 25.1 µM). It also gave an MIC (Staphylococcus aureus [9]) of 8.1 µg/mL (≈ 25.1 µM) and an IC50 [10] of over 100 µM.
For CCCCc1c([C@H](CCC(C)C)C(=O)CCCC(C)C)oc(=O)c(CCCC)c1O, the IC50 (Staphylococcus aureus [1]) was 0.5 µg/mL (≈ 1.19 µM), the IC50 (Escherichia coli [2]) was over 10 µg/mL and the IC50 (Plasmodium falciparum) was 7.7 µg/mL (≈ 18.3 µM). For the same compound, the IC50 at 48 h [3] was 8.9 µg/mL (≈ 21.2 µM), the IC50 at 48 h [4] was 9.3 µg/mL (≈ 22.1 µM) and the MIC (Staphylococcus aureus [5]) was 5 µg/mL (≈ 11.9 µM). The MIC (Staphylococcus aureus [6]) was 5 µg/mL (≈ 11.9 µM), the MIC (Staphylococcus aureus [7]) was 2.5 µg/mL (≈ 5.94 µM) and the MIC (Staphylococcus aureus [8]) was 2.5 µg/mL (≈ 5.94 µM). The MIC (Staphylococcus aureus [9]) was 2.5 µg/mL (≈ 5.94 µM) and the IC50 [10] was over 100 µM.
In the case of C[C@H](CS)C(=O)N1CCC[C@H]1C(=O)O [CAPTOPRIL], the IC50 [10] is reported as 69 µM.
CCCCCC(=O)[C@@H](CCCC)c1oc(=O)c(CCCC)c(O)c1CCCC gave an IC50 (Staphylococcus aureus [1]) of 0.7 µg/mL (≈ 1.78 µM), an IC50 (Escherichia coli [2]) of over 10 µg/mL and an IC50 (Plasmodium falciparum) of 2.3 µg/mL (≈ 5.86 µM). For the same compound, the IC50 at 48 h [3] was over 10 µg/mL, the IC50 at 48 h [4] was over 10 µg/mL and the MIC (Staphylococcus aureus [5]) was 5 µg/mL (≈ 12.7 µM). The MIC (Staphylococcus aureus [6]) was 5 µg/mL (≈ 12.7 µM), the MIC (Staphylococcus aureus [7]) was 5 µg/mL (≈ 12.7 µM) and the MIC (Staphylococcus aureus [8]) was 5 µg/mL (≈ 12.7 µM). For the same compound, the MIC (Staphylococcus aureus [9]) was 5 µg/mL (≈ 12.7 µM), the IC50 [10] was 24.1 µM and the Activity (Escherichia coli [11]) was “inactive”.
CCCCCC(=O)[C@@H](CCCC)c1oc(=O)c(CC(C)C)c(O)c1CCCC gave an IC50 (Staphylococcus aureus [1]) of 1.6 µg/mL (≈ 4.08 µM), an IC50 (Escherichia coli [2]) of over 10 µg/mL and an IC50 (Plasmodium falciparum) of over 10 µg/mL. It also gave an IC50 at 48 h [3] of over 10 µg/mL, an IC50 at 48 h [4] of over 10 µg/mL and an MIC (Staphylococcus aureus [5]) of 10 µg/mL (≈ 25.5 µM). The MIC (Staphylococcus aureus [6]) was 20 µg/mL (≈ 50.9 µM), the MIC (Staphylococcus aureus [7]) was 10 µg/mL (≈ 25.5 µM) and the MIC (Staphylococcus aureus [8]) was 10 µg/mL (≈ 25.5 µM). For the same compound, the MIC (Staphylococcus aureus [9]) was 10 µg/mL (≈ 25.5 µM) and the IC50 [10] was over 100 µM.
